# Laboratory results reported in patent US12344610B2, “APOL1 inhibitors and methods of use” (Maze Therapeutics, Inc., priority 2022, dated 2025).
# Like-named read-outs stand apart in the source and are kept apart here.
# Tests used:
# [1] = tested on: HEK293 cells overexpressing APOL1 G2; assay: APOL1 G2 HEK293 cell rescue assay (reversal of cell death caused by overexpression of APOL1); type: cell-based; settings: geometric mean of at least 2 assay runs, † = single assay run
# How it was run: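 EC50 is the half-maximal effective concentration for reversing cell death driven by APOL1 G2 overexpression in HEK293 cells. Reported as geometric mean of at least 2 runs on separate days, each run averaging duplicate wells per plate; some values from a single run.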
# [2] = tested on: Trypanosoma brucei Lister 427 VSG221 with APOL1 G0 recombinant protein; assay: APOL1 G0 trypanosome cell rescue assay (Example B5); type: cell-based; settings: geometric mean of at least 2 assay runs, † = single assay run
# How it was run: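 Compounds in duplicate 2-fold, 11-point series with 0.4% DMSO final. Next, tag-free mature APOL1 variant protein went in from a 2 μg/mL solution, then trypanosomes to 250 per well. Plates incubated 20 h humidified at 37° C, equilibrated to room temperature, and CellTiter-Glo added for luminescence.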
# [3] = read-out: APOL1 G0 Trypanosome Rescue EC50, Trypanosoma brucei Lister 427 VSG221 with APOL1 G0 recombinant protein, 20 hours, CellTiter-Glo
# [4] = Homo sapiens, HEK293, HEK293 overexpressing APOL1 G2
# [5] = Trypanosoma brucei, 20 h, read-out: APOL1 G0 Trypanosome Rescue EC50, Trypanosoma brucei Lister 427 VSG221 with APOL1 G0 recombinant protein, 20 hours, CellTiter-Glo
SMILES,EC50 ([1]; HEK293 overexpressing APOL1 G2),"EC50 [2, 3]","EC50 [1, 4]","EC50 [2, 5]"
"CC(O)c1ncc(OCCN2CCC3(CC2)C(=O)Nc2ccc(Cl)cc23)cn1 (single isomer, unassigned) [Compound 286, 5-chloro-1′-[2-({2-[(1R) or (1S)-1-hydroxyethyl]pyrimidin-5-yl}oxy)ethyl]-1,2-dihydrospiro[indole-3,4′-piperidin]-2-one]",181 nM,505 nM,–,–
"CC(C)(O)c1ncc(OCCN2CCC3(CC2)C(=O)Nc2ccc(Cl)cc23)cn1 [Compound 305, 5-chloro-1′-(2-{[2-(2-hydroxypropan-2-yl)pyrimidin-5-yl]oxy}ethyl)-1,2-dihydrospiro[indole-3,4′-piperidin]-2-one]",–,–,85.4 nM,187 nM
"CC(O)c1ncc(OCCN2CCC3(CC2)C(=O)Nc2ccc(Cl)cc23)cn1 (single isomer, unassigned) [Compound 285, 5-chloro-1′-[2-({2-[(1S) or (1R)-1-hydroxyethyl]pyrimidin-5-yl}oxy)ethyl]-1,2-dihydrospiro[indole-3,4′-piperidin]-2-one]",–,–,200 nM,547 nM
"O=C(c1ccc(OCCN2CCC3(CC2)C(=O)Nc2ccc(Cl)cc23)cc1C(F)(F)F)N1CCS(=O)(=O)CC1 [Compound 272, 4-[4-(2-{5-chloro-2-oxo-1,2-dihydrospiro[indole-3,4′-piperidin]-1′-yl}ethoxy)-2-(trifluoromethyl)benzoyl]-1λ^6-thiomorpholine-1,1-dione]",–,–,93.4 nM,58.9 nM
"O=C(c1ccc(OCCN2CCC3(CC2)C(=O)Nc2ccc(Cl)cc23)cc1F)N1CC(O)C1 [Compound 235, 5-chloro-1′-{2-[3-fluoro-4-(3-hydroxyazetidine-1-carbonyl)phenoxy]ethyl}-1,2-dihydrospiro[indole-3,4′-piperidin]-2-one]",–,–,59.8 nM,270 nM
"O=C1Nc2ccc(Cl)cc2C12CCN(CCOc1cnc(N3CC(O)C3)nc1)CC2 [Compound 301, 5-chloro-1′-(2-{[2-(3-hydroxyazetidin-1-yl)pyrimidin-5-yl]oxy}ethyl)-1,2-dihydrospiro[indole-3,4′-piperidin]-2-one]",–,–,86 nM,327 nM
"CC[C@]1(O)C[C@H](N2C(=O)CCc3cc(OCCN4CCC5(CC4)C(=O)Nc4ccc(Cl)cc45)cnc32)C1 (single isomer, unassigned) [Compound 290, 5-chloro-1′-[2-({7-oxo-8-[(trans)-3-ethyl-3-hydroxycyclobutyl]-5,6,7,8-tetrahydro-1,8-naphthyridin-3-yl}oxy)ethyl]-1,2-dihydrospiro[indole-3,4′-piperidin]-2-one]",–,–,18.2 nM,55.5 nM
"CS(=O)(=O)C1(c2ncc(OCCN3CCC4(CC3)C(=O)Nc3ccc(Cl)cc34)cn2)COC1 [Compound 276, 5-chloro-1′-(2-{[2-(3-methanesulfonyloxetan-3-yl)pyrimidin-5-yl]oxy}ethyl)-1,2-dihydrospiro[indole-3,4′-piperidin]-2-one]",–,–,101 nM,178 nM
"CS(=O)(=O)c1ccc(OCCN2CCC3(CC2)C(=O)Nc2ccc(Cl)cc23)cc1C(F)CF (single isomer, unassigned) [Compound 219, 5-chloro-1′-(2-{3-[(1R or 1S)-1,2-difluoroethyl]-4-methanesulfonylphenoxy}ethyl)-1,2-dihydrospiro[indole-3,4′-piperidin]-2-one]",26.3 nM,22.3 nM,–,–
"N#Cc1ccc2c(c1)C1(CCN(CCOc3ccc(C(N)=O)c(F)c3)CC1)C(=O)N2 [Compound 238, 4-(2-{5-cyano-2-oxo-1,2-dihydrospiro[indole-3,4′-piperidin]-1′-yl}ethoxy)-2-fluorobenzamide]",–,–,85.2 nM,1590 nM
"CS(=O)(=O)N1CC2(CN(C(=O)c3ccc(OCCN4CCC5(CC4)C(=O)Nc4ccc(Cl)cc45)cc3F)C2)C1 [Compound 273, 5-chloro-1′-[2-(3-fluoro-4-{6-methanesulfonyl-2,6-diazaspiro[3.3]heptane-2-carbonyl}phenoxy)ethyl]-1,2-dihydrospiro[indole-3,4′-piperidin]-2-one]",–,–,88.5 nM,64.9 nM
"CC(O)c1ncc(OCCN2CCC3(CC2)C(=O)Nc2ccc(C(F)F)cc23)cc1C(F)(F)F (single isomer, unassigned) [Compound 287, 5-(difluoromethyl)-1′-[2-({6-[(1S) or (1R)-1-hydroxyethyl]-5-(trifluoromethyl)pyridin-3-yl}oxy)ethyl]-1,2-dihydrospiro[indole-3,4′-piperidin]-2-one]",–,–,33.5 nM,37.6 nM
"CC(=O)N(C)CCS(=O)(=O)c1ccc(OCCN2CCC3(CC2)C(=O)Nc2ccc(Cl)cc23)cc1 [Compound 193, N-{2-[4-(2-{5-chloro-2-oxo-1,2-dihydrosiro[indole-3,4′-piperidin]-1′-yl}ethoxy)benzenesulfonyl]ethyl}-N-methylacetamide]",–,–,155 nM,200 nM
"CC(O)c1ncc(OCCN2CCC3(CC2)C(=O)Nc2ccc(Cl)cc23)cn1 (stereo not drawn) [Compound 284, 5-chloro-1′-(2-{[2-(1-hydroxyethyl)pyrimidin-5-yl]oxy}ethyl)-1,2-dihydrospiro[indole-3,4′-piperidin]-2-one]",–,–,199 nM,808 nM
"COCCN1C(=O)C2(CCN(CCOc3ccc(S(C)(=O)=O)cc3)CC2)c2cc(C#N)ccc21 [Compound 25, 1′-[2-(4-methanesulfonylphenoxy)ethyl]-1-(2-methoxyethyl)-2-oxo-1,2-dihydrospiro[indole-3,4′-piperidine]-5-carbonitrile]",–,–,1310 nM,> 4000 nM
"CS(=O)(=O)c1ccc(OCCN2CCC3(CC2)C(=O)Nc2ccc(Cl)cc23)cc1C(F)CF (single isomer, unassigned) [Compound 218, 5-chloro-1′-(2-{3-[(1S or 1R)-1,2-difluoroethyl]-4-methanesulfonylphenoxy}ethyl)-1,2-dihydrospiro[indole-3,4′-piperidin]-2-one]",–,65.1 nM,25.6 nM,–
"CC(COc1ccc2c(c1)CCC(=O)N2C)N1CCC2(CC1)C(=O)Nc1ccc(Cl)cc12 (single isomer, unassigned) [Compound 200]",87.2 nM,–,–,185 nM
"CN1C(=O)C2(CCN(CCOc3ccc(C4(S(C)(=O)=O)COC4)cc3)CC2)c2cc(C#N)ccc21 [Compound 251, 1′-{2-[4-(3-methanesulfonyloxetan-3-yl)phenoxy]ethyl}-1-methyl-2-oxo-1,2-dihydrospiro[indole-3,4′-piperidine]-5-carbonitrile]",–,–,125 nM,903 nM
"O=C1Nc2ccc(Cl)cc2C12CCN(CCOc1ccc3c(c1)CCS3(=O)=O)CC2 [Compound 196, 5-(2-{5-chloro-2-oxo-1,2-dihydrospiro[indole-3,4′-piperidin]-1′-yl}ethoxy)-2,3-dihydro-1λ^6-benzothiophene-1,1-dione]",–,–,91.9 nM,160 nM
"CC(O)c1ncc(OCCN2CCC3(CC2)C(=O)Nc2ccc(Cl)cc23)cc1C(F)(F)F (single isomer, unassigned) [Compound 292, 5-chloro-1′-[2-({6-[(1S) or (1R)-1-hydroxyethyl]-5-(trifluoromethyl)pyridin-3-yl}oxy)ethyl]-1,2-dihydrospiro[indole-3,4′-piperidin]-2-one]",23.2 nM,31.6 nM,–,–
"CNC(=O)C1(c2ccc(OCCN3CCC4(CC3)C(=O)Nc3ccc(C#N)cc34)cc2)COC1 [Compound 255, 3-[4-(2-{5-cyano-2-oxo-1,2-dihydrospiro[indole-3,4′-piperidin]-1′-yl}ethoxy)phenyl]-N-methyloxetane-3-carboxamide]",–,–,353 nM,1380 nM
"CS(=O)(=O)Nc1ccc(OCCN2CCC3(CC2)C(=O)Nc2ccc(Cl)cc23)cc1 [Compound 214, N-[4-(2-{5-chloro-2-oxo-1,2-dihydrospiro[indole-3,4′-piperidin]-1′-yl}ethoxy)phenyl]methanesulfonamide]",–,–,79 nM,250 nM
"C[C@@H](COc1ccc2c(cnn2C)c1)N1CCC2(CC1)C(=O)Nc1ccc(Cl)cc12 (single isomer, unassigned) [Compound 211]",–,–,138 nM,480 nM
"CNC(=O)c1ccc(OCCN2CCC3(CC2)C(=O)Nc2ccc(Cl)cc23)cc1F [Compound 229, 4-(2-{5-chloro-2-oxo-1,2-dihydrospiro[indole-3,4′-piperidin]-1′-yl}ethoxy)-2-fluoro-N-methylbenzamide]",–,–,128 nM,417 nM
"NC(=O)c1ccc(OCCN2CCC3(CC2)C(=O)Nc2ccc(Cl)cc23)cc1C(F)F [Compound 249, 4-(2-{5-chloro-2-oxo-1,2-dihydrospiro[indole-3,4′-piperidin]-1′-yl}ethoxy)-2-(difluoromethyl)benzamide]",–,–,26.8 nM,53.8 nM
"CS(=O)(=O)C1CN(c2ncc(OCCN3CCC4(CC3)C(=O)Nc3ccc(Cl)cc34)cn2)C1 [Compound 302, 5-chloro-1′-(2-{[2-(3-methanesulfonylazetidin-1-yl)pyrimidin-5-yl]oxy}ethyl)-1,2-dihydrospiro[indole-3,4′-piperidin]-2-one]",–,–,98.1 nM,356 nM
"CS(=O)(=O)c1ccc(OCCN2CCC3(CC2)C(=O)N(CCO)c2ccc(Br)cc23)cc1 [Compound 24, 5-bromo-1-(2-hydroxyethyl)-1′-[2-(4-methanesulfonylphenoxy)ethyl]-1,2-dihydrospiro[indole-3,4′-piperidin]-2-one]",–,–,240 nM,513 nM
